Reference: US9789110B2, “Diacylglycerol acyltransferase 2 inhibitors” (PFIZER INC., priority 2014, dated 2017)

Assays:
hDGAT2 = hDGAT2 (Homo sapiens (Human), UniProt Q96PD7); assay: In vitro DGAT2 assay, hDGAT2 membrane fraction, [14C]decanoyl-CoA scintillation readout; type: biochemical; conditions: geometric mean; FLAG-hDGAT2 membrane fraction; 2 h preincubation; read-out: IC50 for inhibition of DGAT2
Experimental: Recombinant baculovirus for the FLAG-tagged hDGAT2 was generated in SF9 insect cells using Bac-to-Bac baculovirus expression system (Invitrogen) according to the manufacturer's protocol. For the expression of hDGAT2, SF9 cells (20 L) grown in Sf90011 media were infected with hDGAT2 baculovirus at a multiplicity of infection of 1 in a Wave Bioreactor System 20/50P wave bag (GE Healthcare). After 40 hours of infection, the cells were then harvested by centrifugation at 5,000×g. The cell pellets were washed by resuspending in phosphate buffered saline (PBS) and collected by centrifugation at 5,000×g. The cell paste was flash frozen in liquid N2 and stored at −80° C. until needed. All operations below were at 4° C. unless otherwise noted. The cells were resuspended in lysis buffer (50 mM Tris-HCl, pH 8.0, 250 mM sucrose) including 1 mM ethylenediaminetetraacetic acid (EDTA) and the complete protease inhibitor cocktail (Roche Diagnostics) at a ratio of 3 ml buffer per 1 g cell paste. The cells were lysed by dounce homogenizer. The cell debris was removed by centrifugation at 1,000×g for 20 min, and the supernatant was centrifuged at 100,000×g for 1 hour. The resulting pellet was rinsed three times by filling ultracentrifuge tubes to the top with ice cold PBS before decanting. The washed pellet was resuspended with gentle stirring for 1 hour in lysis buffer containing 8 mM 3-[(3-cholamidopropyl)dimethylammonio]-1-propanesulfonate (CHAPS) at a ratio of 1 mL buffer per 1 g of original cell paste and centrifuged again at 100,000×g for 1 hour. The resulting supernatant was aliquotted, flash frozen in liquid N2, and stored at −80° C. until use.
For determination of IC50 values, the reactions were carried out in 384-well white Polyplates (Perkin Elmer) in a total volume of 20 μL. To […] compounds dissolved in 100% DMSO and spotted at the bottom of each well, 5 μL of 0.04% bovine serum albumin (BSA) (fatty acid free, Sigma Aldrich) was added and the mixture was incubated at room temperature for 20 minutes. To this mixture, 10 μL of hDGAT2 membrane fraction (0.01 mg/mL) diluted in 100 mM Hepes-NaOH, pH 7.4, 20 mM MgCl2 containing 200 nM methyl arachidonyl fluorophosphonate (Cayman Chemical; dried from ethyl acetate stock solution under argon gas and dissolved in DMSO as 5 mM stock) was added. After this mixture was preincubated at room temperature for 2 hours, DGAT2 reactions were initiated by the addition of 4 μL of substrates containing 30 μM [1-^14C]decanoyl-CoA (custom-synthesized by Perkin Elmer, 50 mCi/mmol) and 125 μM 1,2-didecanoyl-sn-glycerol (Avanti Polar Lipids) dissolved in 12.5% acetone. The reaction mixtures were incubated at room temperature for 40 min and the reactions were stopped by addition of 5 μL of 1% H3PO4. After the addition of 45 μL MicroScint-E (Perkin-Elmer), plates were sealed with Top Seal-A covers (Perkin-Elmer) and phase partitioning of substrates and products was achieved using a HT-91100 microplate orbital shaker (Big Bear Automation, Santa Clara, Calif.). Plates were centrifuged at 2,000×g for 1 min in an Allegra 6R Centrifuge (Beckman Coulter) and then were sealed again with fresh covers before reading in a 1450 Microbeta Wallac Trilux Scintillation Counter (Perkin Elmer). DGAT2 activity was measured by quantifying the generated product [^14C]tridecanoylglycerol in the upper organic phase.
Inhibitors were tested at eleven different concentrations to generate IC50 values for each compound.

[1] = molecular target: DGAT2 in primary human hepatocytes (Homo sapiens (Human), UniProt Q96PD7); assay: IC50 for DGAT2 inhibitors in human hepatocytes, [14C]-glycerol incorporation into lipids; type: cell-based; conditions: average; cryopreserved human hepatocytes; selective DGAT1 inhibitor 3 μM in all wells; 3 hour incubation; read-out: IC50 in primary human hepatocytes
Sequence of DGAT2 in primary human hepatocytes (Q96PD7 whole entry): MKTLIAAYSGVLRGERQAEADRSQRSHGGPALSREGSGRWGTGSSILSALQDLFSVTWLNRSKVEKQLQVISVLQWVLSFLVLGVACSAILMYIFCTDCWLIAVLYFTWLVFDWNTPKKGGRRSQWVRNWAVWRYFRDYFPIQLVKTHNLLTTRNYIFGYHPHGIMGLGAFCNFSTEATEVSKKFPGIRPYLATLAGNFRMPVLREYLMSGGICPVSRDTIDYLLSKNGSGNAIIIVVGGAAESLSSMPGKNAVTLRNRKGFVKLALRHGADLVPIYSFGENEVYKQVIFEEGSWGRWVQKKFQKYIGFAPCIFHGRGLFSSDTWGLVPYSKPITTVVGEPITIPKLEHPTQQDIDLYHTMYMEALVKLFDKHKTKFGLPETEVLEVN
Experimental: For evaluation of the effects of DGAT2 inhibitors in a cell-based setting, cryopreserved human hepatocytes (Lot QOC and NON, Celsis, Chicago, Ill.) were thawed and plated onto type I collagen-coated plates according to the manufacturer's instructions. After 24 hours overnight recovery period, the cells were overlayed with media containing 250 μg/ml Matrigel (BD Biosciences, San Jose, Calif.). The following day, media was aspirated and replaced with serum-free Williams Media E (Life Technologies, Grand Island, N.Y.) containing 400 μM sodium dodecanoate (Sigma-Aldrich, St. Louis, Mo.). Forty minutes later, DGAT2 inhibitors (prepared as 100× stocks in 25% DMSO, 75% Williams' Media E) were added to the desired final concentration. […] After a 20 minute preincubation, 0.2 μCi [1,3-^14C]-glycerol glycerol (American Radio Chemicals, St. Louis, Mo.) was added to each well and mixed by gentle pipetting prior to a 3 hour incubation. At this point, media was aspirated and the cells were lysed in isopropyl alcohol: tetrahydrofuran (9:1) prior to centrifugation at 3000 rpm for 5 minutes. Radiolabeled lipids were resolved using a 2-solvent system by thin layer chromatography using standard technique (solvent 1 contained ethyl acetate:isopropyl alcohol:chloroform:methanol:0.25% potassium chloride in water (100:100:100:40.2:36.1, v/v/v/v) and solvent 2 contained hexane: diethyl ether: acetic acid (70:27:3, v/v/v)). After separation, radiolabeled lipids were visualized using a Molecular Dynamics' PhosphorImager system. The half maximal inhibitory concentrations (IC50 values) were determined using GraphPad Prism (GraphPad Software, Inc., La Jolla, Calif.).
Table 4 below provides IC50 values for the Examples in accordance with the above-described assay. Results were reported as average IC50 values, low and high IC50 range (95% confidence interval).

Sequence of hDGAT2 (Q96PD7 whole entry): as above

SMILES | IC50 (hDGAT2) [nM] | IC50 [1] [nM]
CCOc1ccccc1O[C@@H]1CCCN(c2ncc(C(=O)NCc3ccc(C(C)C(=O)O)cc3)cn2)C1 (single isomer, unassigned) [Example 15] | 2.4 | 78.8
CCOc1ccccc1O[C@@H]1CCCN(c2ncc(C(=O)NCc3cccc(C(=O)O)c3)cn2)C1 [Example 1, (R)-3-((2-(3-(2-ethoxyphenoxy)piperidin-1-yl)pyrimidine-5-carboxamido)methyl)benzoic acid] | 91.6 | 11.2
CCOc1ccccc1O[C@@H]1CCCN(c2ncc(C(=O)NCc3cc(OC)cc(C(=O)O)c3)cn2)C1 [Example 2, (R)-3-((2-(3-(2-ethoxyphenoxy)piperidin-1-yl)pyrimidine-5-carboxamido)methyl)-5-methoxybenzoic acid] | 123 | 11.5
CCOc1ccccc1O[C@@H]1CCCN(c2ncc(C(=O)N[C@H](C)c3cccc(C(=O)O)c3)cn2)C1 [Example 3, 3-((R)-1-(2-((R)-3-(2-ethoxyphenoxy)piperidin-1-yl)pyrimidine-5-carboxamido)ethyl)benzoic acid] | 88.4 | 29.2
CCNC(=O)c1cnc(N2CCC[C@@H](Oc3ccccc3OCC)C2)nc1 [Example 4, (R)-2-(3-(2-ethoxyphenoxy)piperidin-1-yl)-N-ethylpyrimidine-5-carboxamide] | 35 | 6.6
CCOc1ccccc1O[C@@H]1CCCN(c2ncc(C(=O)N[C@H]3CCC[C@H]3C(=O)O)cc2F)C1 [Example 5, (1R,2S)-2-(6-((R)-3-(2-ethoxyphenoxy)piperidin-1-yl)-5-fluoronicotinamido)cyclopentane-1-carboxylic acid] | 66.6 | 8.4
CCOc1ccccc1O[C@@H]1CCCN(c2ncc(C(=O)N[C@H]3CCC[C@H]3C(=O)O)cn2)C1 [Example 6, (1R,2S)-2-(2-((R)-3-(2-ethoxyphenoxy)piperidin-1-yl)pyrimidine-5-carboxamido)cyclopentane-1-carboxylic acid] | 222 | 57.8
CCOc1ccccc1O[C@@H]1CCCN(c2ccc(C(=O)NCc3cccc(C(=O)O)c3)cn2)C1 [Example 7, (R)-3-((6-(3-(2-ethoxyphenoxy)piperidin-1-yl)nicotinamido)methyl)benzoic acid] | 149 | 19.2
CCOc1ccccc1O[C@@H]1CCCN(c2ncc(C(=O)NCc3ccnc(C(=O)O)c3)cc2F)C1 [Example 8, (R)-4-((6-(3-(2-ethoxyphenoxy)piperidin-1-yl)-5-fluoronicotinamido)methyl)picolinic acid] | 9.7 | 51.7
CCOc1ccccc1O[C@@H]1CCCN(c2ncc(C(=O)NCc3cc(C(=O)O)ccc3C)cn2)C1 [Example 9, (R)-3-((2-(3-(2-ethoxyphenoxy)piperidin-1-yl)pyrimidine-5-carboxamido)methyl)-4-methylbenzoic acid] | 38.1 | 57
CCOc1ccccc1O[C@@H]1CCCN(c2ncc(C(=O)NCc3cc(C(=O)O)ccc3F)cn2)C1 [Example 10, (R)-3-((2-(3-(2-ethoxyphenoxy)piperidin-1-yl)pyrimidine-5-carboxamido)methyl)-4-fluorobenzoic acid] | 87.3 | 10.4
CCOc1ccccc1O[C@@H]1CCCN(c2ncc(C(=O)NCc3cc(C(=O)O)ccc3OC)cn2)C1 [Example 11, (R)-3-((2-(3-(2-ethoxyphenoxy)piperidin-1-yl)pyrimidine-5-carboxamido)methyl)-4-methoxybenzoic acid] | 122 | 6.8
CCOc1ccccc1O[C@@H]1CCCN(c2ncc(C(=O)NCc3cc(C(=O)O)cnc3C)cn2)C1 [Example 12, (R)-5-((2-(3-(2-ethoxyphenoxy)piperidin-1-yl)pyrimidine-5-carboxamido)methyl)-6-methylnicotinic acid] | 62.3 | 67.5
CCOc1ccccc1O[C@@H]1CCCN(c2ncc(C(=O)NCc3ccc(C(=O)O)cc3C)cn2)C1 [Example 13, (R)-4-((2-(3-(2-ethoxyphenoxy)piperidin-1-yl)pyrimidine-5-carboxamido)methyl)-3-methylbenzoic acid] | 45.2 | 20.7
CCOc1ccccc1O[C@@H]1CCCN(c2ncc(C(=O)NCc3cc(C)cc(C(=O)O)c3)cn2)C1 [Example 16, (R)-3-((2-(3-(2-ethoxyphenoxy)piperidin-1-yl)pyrimidine-5-carboxamido)methyl)-5-methylbenzoic acid] | 47.7 | 45
CCNC(=O)c1cnc(N2CCC[C@@H](Oc3ccc(C#N)cc3OCC)C2)nc1 [Example 17, (R)-2-(3-(4-cyano-2-ethoxyphenoxy)piperidin-1-yl)-N-ethylpyrimidine-5-carboxamide] | 182 | 19.8
CCOc1ccccc1O[C@@H]1CCCN(c2ncc(C(=O)NCc3ccc(C(=O)O)cc3)cn2)C1 [Example 18.1, (R)-4-((2-(3-(2-ethoxyphenoxy)piperidin-1-yl)pyrimidine-5-carboxamido)methyl)benzoic acid] | 165 | 116
CCOc1ccccc1O[C@@H]1CCCN(c2ncc(C(=O)NCc3cccc(CC(=O)O)c3)cn2)C1 [Example 18.2, (R)-2-(3-((2-(3-(2-ethoxyphenoxy)piperidin-1-yl)pyrimidine-5-carboxamido)methyl)phenyl)acetic acid] | 156 | 45.7
CCOc1ccccc1O[C@@H]1CCCN(c2ncc(C(=O)NCc3ccccc3CC(=O)O)cn2)C1 [Example 18.3, (R)-2-(2-((2-(3-(2-ethoxyphenoxy)piperidin-1-yl)pyrimidine-5-carboxamido)methyl)phenyl)acetic acid] | 182 | 499
CCOc1ccccc1O[C@@H]1CCCN(c2ncc(C(=O)N[C@H]3CCc4ccccc43)cn2)C1 [Example 21.1, N-((S)-2,3-dihydro-1H-inden-1-yl)-2-((R)-3-(2-ethoxyphenoxy)piperidin-1-yl)pyrimidine-5-carboxamide] | 1.5 | –
CCOc1ccccc1O[C@@H]1CCCN(c2ncc(C(=O)N3CC(Oc4ccccc4)C3)cn2)C1 [Example 21.2, (R)-(2-(3-(2-ethoxyphenoxy)piperidin-1-yl)pyrimidin-5-yl)(3-phenoxyazetidin-1-yl)methanone] | 0.6 | –
